Usually GI50 stands for the concentration giving 50% growth inhibition.

We go through twelve compounds from US8686146B2, “Azaindenoisoquinoline topoisomerase I inhibitors” (Purdue Research Foundation, priority 2012, dated 2014).

Data set [1] relates to approximately 60 different human cancer cell lines. As to the kind of experiment: NCI screen, mean graph midpoint over all cell lines. The data set is classed as cell-based. To be noted: all human cancer cell lines successfully tested, 48 h. As to the method: (§1) Cells of approximately 60 different human cancer cell lines were incubated for 48 h with five 10-fold dilutions of the tested compounds starting from 100 μM and then treated with sulforhodamine B dye. The ratios of recorded optical densities relative to that of the control were plotted as a function of the common logarithm of the tested compound concentrations. […] The GI50 and the mean graph midpoint (MGM) values of the prepared indenoisoquinolines in selected cell lines are presented in Table I.
(§2) The antiproliferative activity of each compound was determined in the National Cancer Institute (NCI) screen as described above. Cells of approximately 60 different human cancer cell lines were incubated for 48 h with five 10-fold dilutions of the test compounds starting from 100 μM, and then treated with sulforhodamine B dye. The ratios of recorded optical densities relative to those of the control were plotted as a function of the common logarithm of the tested compound concentrations. […] The GI50 and the mean graph midpoint (MGM) values of the prepared (aza)indeno-isoquinolines in selected cell lines are presented in Table 2.

A further data set relates to HOP-62. In words: NCI screen antiproliferative activity, lung HOP-62. As to the method:
as §1, §2

The subject of the next data set is MCF7. As to the kind of experiment: NCI screen antiproliferative activity, breast MCF7. As to the method: as §1, §2
The next data set relates to SN12C. In words: NCI screen antiproliferative activity, renal SN12C. As to the method:
as §1, §2

For the next data set, the system named is UACC-62. In words: NCI screen antiproliferative activity, melanoma UACC-62. As to the method: as §1, §2
The next data set concerns DU-145. In words: NCI screen antiproliferative activity, prostate DU-145. As to the method:
as §1, §2

The test system of the next data set is SF-539. In words: NCI screen antiproliferative activity, CNS SF-539. As to the method:
as §1, §2

The test system of a further data set is HCT-116. In words: NCI screen antiproliferative activity, colon HCT-116. As to the method:
as §1, §2

For the next data set, the system named is OVCAR-3. As to the kind of experiment: NCI screen antiproliferative activity, ovarian OVCAR-3. As to the method:
as §1, §2

In a further data set the target is T1, human recombinant Top1 (Homo sapiens, UniProt P11387).
T1 construct: made in house
T1 sequence (P11387 1-765): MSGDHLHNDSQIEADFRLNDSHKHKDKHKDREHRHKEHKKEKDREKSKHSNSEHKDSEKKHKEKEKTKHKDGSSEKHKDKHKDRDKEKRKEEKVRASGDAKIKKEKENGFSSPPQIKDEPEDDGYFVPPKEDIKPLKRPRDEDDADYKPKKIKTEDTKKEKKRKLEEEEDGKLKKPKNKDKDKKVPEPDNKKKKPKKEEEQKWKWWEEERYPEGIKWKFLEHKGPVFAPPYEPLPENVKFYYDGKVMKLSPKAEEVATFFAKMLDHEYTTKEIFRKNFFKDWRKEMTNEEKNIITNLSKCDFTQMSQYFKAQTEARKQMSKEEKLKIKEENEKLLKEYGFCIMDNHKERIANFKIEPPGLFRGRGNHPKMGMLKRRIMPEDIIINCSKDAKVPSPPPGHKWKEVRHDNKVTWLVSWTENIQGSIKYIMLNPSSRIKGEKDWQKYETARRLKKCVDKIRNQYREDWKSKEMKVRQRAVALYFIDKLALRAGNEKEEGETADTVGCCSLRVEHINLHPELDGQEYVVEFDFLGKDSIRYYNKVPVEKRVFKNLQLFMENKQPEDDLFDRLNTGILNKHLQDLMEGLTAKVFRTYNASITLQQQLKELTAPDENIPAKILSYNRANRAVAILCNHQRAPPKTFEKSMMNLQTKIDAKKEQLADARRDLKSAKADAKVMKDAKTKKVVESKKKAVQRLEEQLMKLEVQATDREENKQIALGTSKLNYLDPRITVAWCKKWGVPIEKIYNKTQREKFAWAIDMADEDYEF
As to the kind of experiment: Top1-mediated DNA cleavage assay. The data set is classed as biochemical. To be noted: semiquantitative, relative to compounds 1 and 2. As to the method:
Unincorporated [^32P]dGTP was removed using mini Quick […] columns (Roche, Indianapolis, Ind.), and the eluate containing the […] DNA substrate was collected. […] Aliquots of each reaction mixture were subjected to 20% denaturing PAGE. […] The DNA fragments were separated on a denaturing gel. […] All of the target compounds were tested for induction of DNA damage in Top1-mediated DNA cleavage assays, as described above.

[2] abbreviates: Homo sapiens, HOP-62, 48 h, read-out: cytotoxicity (GI50) lung HOP-62, 48 h, sulforhodamine B, single determination, Table 1.
The mark [3] stands for this setting: Homo sapiens, HOP-62, 48 h, read-out: cytotoxicity (GI50) lung HOP-62, 48 h, sulforhodamine B, single determination, Table 2.
Where [4] appears, read: Homo sapiens, MCF7, 48 h, read-out: cytotoxicity (GI50) breast MCF7, 48 h, sulforhodamine B, single determination, Table 2.
Setting [5] is: Homo sapiens, SN12C, 48 h, read-out: cytotoxicity (GI50) renal SN12C, 48 h, sulforhodamine B, single determination, Table 1.
Setting [6] is: Homo sapiens, SN12C, 48 h, read-out: cytotoxicity (GI50) renal SN12C, 48 h, sulforhodamine B, single determination, Table 2.
The mark [7] stands for this setting: Homo sapiens, UACC-62, 48 h, read-out: cytotoxicity (GI50) melanoma UACC-62, 48 h, sulforhodamine B, single determination, Table 1.
Setting [8] is: Homo sapiens, UACC-62, 48 h, read-out: cytotoxicity (GI50) melanoma UACC-62, 48 h, sulforhodamine B, single determination, Table 2.
Where [9] appears, read: Homo sapiens, DU-145, 48 h, read-out: cytotoxicity (GI50) prostate DU-145, 48 h, sulforhodamine B, single determination, Table 1.
[10] abbreviates: Homo sapiens, DU-145, 48 h, read-out: cytotoxicity (GI50) prostate DU-145, 48 h, sulforhodamine B, single determination, Table 2.
The mark [11] stands for this setting: Homo sapiens, 48 h, read-out: cytotoxicity (GI50) CNS SF-539, 48 h, sulforhodamine B, single determination, Table 2.
Setting [12] is: Homo sapiens, HCT-116, 48 h, read-out: cytotoxicity (GI50) colon HCT-116, 48 h, sulforhodamine B, single determination, Table 1.
Setting [13] is: Homo sapiens, HCT-116, 48 h, read-out: cytotoxicity (GI50) colon HCT-116, 48 h, sulforhodamine B, single determination, Table 2.
Where [14] appears, read: Homo sapiens, MCF7, 48 h, read-out: cytotoxicity (GI50) breast MCF7, 48 h, sulforhodamine B, single determination, Table 1.
The mark [15] stands for this setting: Homo sapiens, OVCAR-3, 48 h, read-out: cytotoxicity (GI50) ovarian OVCAR-3, 48 h, sulforhodamine B, single determination, Table 1.

Structures can show the parent of a compound that is named as a salt. Where two headings read alike, the source gives them in different places. A value given as a limit tells only on which side of the number the result lay.

With `CC[C@@]1(O)C(=O)OCc2c1cc1n(c2=O)Cc2cc3ccccc3nc2-1` [Compound 1, camptothecin, reference compound], the “MGM (mean graph midpoint for growth inhibition)” value in data set [1] (Table 1) worked out at 0.04 µM; in [1] (Table 2), 0.040 µM. Besides, the GI50 was found to be 10 nM with HOP-62 (setting [2]); 10 nM in the data set with HOP-62 (setting [3]); 13 nM with MCF7 (setting [4]); 20 nM in the data set with SN12C (setting [5]); 20 nM in the data set on SN12C (setting [6]); 10 nM in the data set on UACC-62 (setting [7]). Further, the GI50 with UACC-62 (setting [8]) came to 10 nM; with DU-145 (setting [9]), 10 nM; with DU-145 (setting [10]), 10 nM; in the data set with SF-539 (setting [11]) it was 10 nM; in the data set with HCT-116 (setting [12]), 30 nM; with HCT-116 (setting [13]), 30 nM.
With `COc1cc2c3c(n(C)c(=O)c2cc1OC)-c1cc2c(cc1C3=O)OCO2` [Compound 2, reference compound], the “MGM (mean graph midpoint for growth inhibition)” value in data set [1] (Table 1) came out at 8.51 µM; in data set [1] (Table 2), 8.5 µM. Moreover, the concentration for 50% growth inhibition (GI50) in the data set with HOP-62 (setting [2]) amounted to 2820 nM; in the data set on HOP-62 (setting [3]), 2800 nM; with MCF7 (setting [14]), 1910 nM; in the data set on MCF7 (setting [4]), 1900 nM; with SN12C (setting [5]), 25700 nM; in the data set with SN12C (setting [6]), 26000 nM. The GI50 with UACC-62 (setting [8]) turned out to be 560 nM; in the data set with DU-145 (setting [9]), 4790 nM; in the data set on DU-145 (setting [10]), 4800 nM; with SF-539 (setting [11]), 1700 nM; in the data set on HCT-116 (setting [12]), 11500 nM; in the data set with HCT-116 (setting [13]) it was 11500 nM.
For `CN(C)CCCn1c2c(c3ccccc3c1=O)C(=O)c1cccnc1-2` [Compound 18, 7-Aza-5,6-dihydro-6-(3-dimethylaminopropyl)-5,11-dioxo-11H-indeno[1,2-c]-isoquinoline Hydrochloride], the “MGM (mean graph midpoint for growth inhibition)” value in data set [1] (Table 1) is 1.78 µM. The GI50 with HOP-62 (setting [2]) was determined as 1510 nM; with MCF7 (setting [14]) it was 250 nM; in the data set on SN12C (setting [5]), 810 nM; with UACC-62 (setting [7]), 2690 nM; in the data set on OVCAR-3 (setting [15]), 2570 nM; in the data set with DU-145 (setting [9]), 1350 nM. Also, the GI50 in the data set with HCT-116 (setting [12]) is 410 nM. The “Top1 Cleavage” value on human recombinant Top1 (Table 1) was “+++”.
Regarding `CN(C)CCCn1c2c(c3ccc([N+](=O)[O-])cc3c1=O)C(=O)c1cccnc1-2.Cl` [Compound 20, 7-Aza-5,6-dihydro-6-(3-dimethylaminopropyl)-3-nitro-5,11-dioxo-11H-indeno[1,2-c]isoquinoline Hydrochloride], in data set [1] (Table 1), the “MGM (mean graph midpoint for growth inhibition)” value is 1.86 µM. For the same compound, the GI50 was 2350 nM with HOP-62; 360 nM in the data set on MCF7; 1000 nM in the data set with SN12C; 3310 nM in the data set with UACC-62; 2290 nM with OVCAR-3; 930 nM in the data set with DU-145. Besides, the concentration for 50% growth inhibition (GI50) in the data set on SF-539 turned out to be 2690 nM; in the data set with HCT-116, 440 nM.
On to `Cl.O=C1c2cccnc2-c2c1c1ccccc1c(=O)n2CCCN1CCOCC1` [Compound 21, 7-Aza-5,6-dihydro-6-(3-morpholinopropyl)-5,11-dioxo-11H-indeno[1,2-c]iso-quinoline Hydrochloride], for which, in data set [1] (Table 1), the “MGM (mean graph midpoint for growth inhibition)” value was found to be 15.49 µM. The concentration for 50% growth inhibition (GI50) was 35500 nM with HOP-62; 2750 nM in the data set with MCF7; 5370 nM with SN12C; greater than 100000 nM in the data set with UACC-62; 28200 nM with OVCAR-3; 3550 nM with DU-145. Moreover, the GI50 is 5620 nM in the data set on SF-539 and 1860 nM in the data set on HCT-116.
Regarding `O=C1c2cccnc2-c2c1c1ccc([N+](=O)[O-])cc1c(=O)n2CCCN1CCOCC1` [Compound 23, 7-Aza-5,6-dihydro-6-(3-morpholinopropyl)-3-nitro-5,11-dioxo-1H-indeno-[1,2-c]isoquinoline Hydrochloride], the “Top1 Cleavage” value on human recombinant Top1 (Table 1) is reported as “+++”.
Still for that read-out and setting: as for `COc1cc2c3c(n(CCCn4ccnc4)c(=O)c2cc1OC)-c1ncccc1C3=O` [Compound 29, 7-Aza-5,6-dihydro-6-(3-(1H-imidazol-1-yl)propyl)-2,3-dimethoxy-5,11-dioxo-11H-indeno[1,2-c]isoquinoline], the entry is “++”.
`CN(C)CCCn1c2c(c3ccccc3c1=O)C(=O)c1ccccc1-2` [Compound 33, reference compound]: the “MGM (mean graph midpoint for growth inhibition)” value in data set [1] (Table 1) was 1.86 µM. Also, the GI50 amounted to 1740 nM with HOP-62 (setting [2]); 550 nM with MCF7 (setting [14]); 910 nM in the data set with SN12C (setting [5]); 510 nM in the data set on UACC-62 (setting [7]); 1660 nM in the data set on OVCAR-3 (setting [15]); 1320 nM with DU-145 (setting [9]). The 50% growth inhibitory concentration (GI50) with HCT-116 (setting [12]) is 580 nM.
Take `COc1cc2c3c(n(CCCN(C)C)c(=O)c2cc1OC)-c1cccnc1C3=O.O=C(O)C(F)(F)F` [Compound 37, 10-Aza-5,6-dihydro-6-(3-dimethylaminopropyl)-2,3-dimethoxy-5,11-dioxo-11H-indeno[1,2-c]isoquinoline Trifluoroacetate]: the “Top1 Cleavage” value on human recombinant Top1 (Table 2) is reported as “++”.
Still for that read-out and setting: the value for `COc1ccc2c(n1)C(=O)c1c-2n(CCCN(C)C)c(=O)c2cc(OC)c(OC)cc12.O=C(O)C(F)(F)F` [Compound 45, 10-Aza-5,6-dihydro-6-(3-dimethylaminopropyl)-2,3,9-trimethoxy-5,11-dioxo-11H-indeno[1,2-c]isoquinoline Trifluoroacetate] was “+++”.
On the same count and under the same terms, the value for `COc1ccc2c(n1)C(=O)c1c-2n(CCCN2CCOCC2)c(=O)c2cc(OC)c(OC)cc12.O=C(O)C(F)(F)F` [Compound 46, 10-Aza-5,6-dihydro-6-(3-(4-morpholino)propyl)-2,3,9-trimethoxy-5,11-dioxo-11H-indeno[1,2-c]isoquinoline Trifluoroacetate] was “+++”.
Consider `COc1cc2c3c(n(CCCN(C)C)c(=O)c2cc1OC)-c1cnccc1C3=O.O=C(O)C(F)(F)F` [Compound 117, 8-Aza-5,6-dihydro-6-(3-dimethylaminopropyl)-2,3-dimethoxy-5,11-dioxo-11H-indeno[1,2-c]isoquinoline Trifluoroacetate], for which the “Top1 Cleavage” value at human recombinant Top1 (Table 2) is on record as “++”.
